Molecules are shown by their SMILES.

Experiment [1] addresses GST-tagged human ROCK1 catalytic domain 1-477 (Homo sapiens (Human), UniProt Q13464). As to the kind of experiment: Inhibition of Rho-associated protein kinase isoform 1 (LANCE Ultra ULight-CREBtide FRET kinase assay). The experiment is classed as biochemical. The settings on record: 30 μM was the highest concentration analyzed. In short, it runs like this:
(§1)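 Baculovirus-expressed kinase phosphorylated ULight-CREBtide for 90 min at room temperature before the reaction was stopped with 10 mM EDTA. Phospho-substrate was detected by TR-FRET with 1 nM Europium-anti-phospho-CREB (Ser133) antibody after 60 min at room temperature.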

For experiment [2], the target named is GST-tagged human ROCK2 catalytic domain 1-553 (Homo sapiens (Human), UniProt O75116). The experiment in a line: Inhibition of Rho-associated protein kinase isoform 2 (LANCE Ultra ULight-CREBtide FRET kinase assay). The experiment is classed as biochemical. Conditions: for IC50: 30 μM was the highest concentration analyzed; for Selectivity for ROCK2 over ROCK1 (IC50 ROCK1 / IC50 ROCK2): selectivity ROCK2 vs ROCK1. In short, it runs like this:
as §1

Sequence of GST-tagged human ROCK1 catalytic domain 1-477 (Q13464 1-477): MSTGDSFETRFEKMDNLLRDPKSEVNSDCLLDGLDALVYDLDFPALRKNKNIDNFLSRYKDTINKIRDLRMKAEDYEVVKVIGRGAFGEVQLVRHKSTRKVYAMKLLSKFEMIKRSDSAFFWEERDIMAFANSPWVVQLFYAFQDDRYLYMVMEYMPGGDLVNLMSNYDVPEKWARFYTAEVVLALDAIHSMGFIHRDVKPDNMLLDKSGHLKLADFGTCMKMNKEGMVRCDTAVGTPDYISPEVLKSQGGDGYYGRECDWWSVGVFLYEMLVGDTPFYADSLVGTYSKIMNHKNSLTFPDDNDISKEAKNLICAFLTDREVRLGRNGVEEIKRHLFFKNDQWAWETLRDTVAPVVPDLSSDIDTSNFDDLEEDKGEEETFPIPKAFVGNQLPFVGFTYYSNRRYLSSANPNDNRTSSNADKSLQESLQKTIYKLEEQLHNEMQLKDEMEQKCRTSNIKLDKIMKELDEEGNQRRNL
Sequence of GST-tagged human ROCK2 catalytic domain 1-553 (O75116 1-553): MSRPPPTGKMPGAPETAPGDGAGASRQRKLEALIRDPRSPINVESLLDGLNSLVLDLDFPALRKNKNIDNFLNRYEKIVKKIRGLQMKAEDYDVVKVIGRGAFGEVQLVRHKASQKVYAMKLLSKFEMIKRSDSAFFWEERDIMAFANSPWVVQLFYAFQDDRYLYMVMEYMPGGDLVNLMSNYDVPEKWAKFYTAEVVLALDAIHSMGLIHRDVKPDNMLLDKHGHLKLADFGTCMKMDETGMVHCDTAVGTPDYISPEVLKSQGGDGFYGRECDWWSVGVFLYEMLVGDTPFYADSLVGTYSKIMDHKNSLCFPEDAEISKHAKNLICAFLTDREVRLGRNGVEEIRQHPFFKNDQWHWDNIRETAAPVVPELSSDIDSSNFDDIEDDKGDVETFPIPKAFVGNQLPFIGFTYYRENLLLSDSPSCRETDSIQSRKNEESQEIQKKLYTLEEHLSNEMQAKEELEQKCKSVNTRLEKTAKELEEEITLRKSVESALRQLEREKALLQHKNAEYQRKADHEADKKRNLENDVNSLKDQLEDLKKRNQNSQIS

With `CC(=O)Nc1cc(CN(C)C)cc(-c2nnc(Nc3ccc4[nH]ncc4c3Cl)s2)c1.O=C(O)C(F)(F)F` [Example 48C], the IC50 in experiment [1] lay within 1 to 15 µM. For the same compound, in experiment [2], the half-inhibitory concentration (IC50) is < 1 µM and the “Selectivity for ROCK2 over ROCK1 (IC50 ROCK1 / IC50 ROCK2)” value (“Selectivity … (IC50 ROCK1 / IC50 ROCK2)” below) is listed as >5.
The matching figures for `CC(=O)Nc1cc(CN2CCOCC2)cc(-c2nnc(Nc3ccc4[nH]ncc4c3Cl)s2)c1.O=C(O)C(F)(F)F` [Example 48D]: 1 to 15 µM, < 1 µM and >5.
In the case of `CC(=O)Nc1ccc(S(C)(=O)=O)c(-c2nnc(Nc3ccc4[nH]ncc4c3Cl)s2)c1` [Example 48E], the half-maximal inhibitory concentration (IC50) in experiment [1] is 15 to 30 µM; in experiment [2] it was 1 to 15 µM. In addition, the “Selectivity … (IC50 ROCK1 / IC50 ROCK2)” value in experiment [2] is <5.
Taken in the same sequence, the figures for `CSc1ccc(NC(C)=O)cc1-c1nnc(Nc2ccc3[nH]ncc3c2Cl)s1` [Example 48F] were < 1 µM, < 1 µM and >5.
Taken in the same sequence, the figures for `CC(=O)Nc1cc(CO)cc(-c2nnc(Nc3ccc4[nH]ncc4c3Cl)s2)c1` [Example 48H] were < 1 µM, < 1 µM and >50.
In the case of `CC(=O)Nc1ccc(C)c(-c2nnc(Nc3ccc4[nH]ncc4c3Cl)s2)c1.O=C(O)C(F)(F)F` [Example 48I], the IC50 in experiment [1] was < 1 µM. Further, in experiment [2], the concentration for half-maximal inhibition (IC50) was < 1 µM and the “Selectivity … (IC50 ROCK1 / IC50 ROCK2)” value is recorded as >5.
Turning to `COc1ccc(NC(C)=O)cc1-c1nnc(Nc2ccc3[nH]ncc3c2Cl)s1` [Example 48J], in experiment [1], the concentration for half-maximal inhibition (IC50) was < 1 µM. For the same compound, in experiment [2], the half-inhibitory concentration (IC50) was < 1 µM and the “Selectivity … (IC50 ROCK1 / IC50 ROCK2)” value is >5.
Regarding `CC(=O)Nc1cc(-c2nnc(Nc3ccc4[nH]ncc4c3Cl)s2)cc(C(F)(F)F)c1` [Example 48K], the IC50 in experiment [1] was > 30 µM. In addition, in experiment [2], the IC50 is < 1 µM and the “Selectivity … (IC50 ROCK1 / IC50 ROCK2)” value is >100.
In experiment [1], `CC(=O)Nc1cc(-c2nnc(Nc3ccc4[nH]ncc4c3Cl)s2)ccc1CN(C)C` [Example 48L] returned an IC50 of 1 to 15 µM. Also, in experiment [2], the 50% inhibitory concentration (IC50) is < 1 µM and the “Selectivity … (IC50 ROCK1 / IC50 ROCK2)” value is >5.
On to `O=C(Nc1cc(-c2nnc(Nc3ccc4[nH]ncc4c3Cl)s2)ccc1C(F)(F)F)c1cnn(CCO)c1` [Example 48M], for which the IC50 in experiment [1] is < 1 µM. For the same compound, in experiment [2], the IC50 is < 1 µM and the “Selectivity … (IC50 ROCK1 / IC50 ROCK2)” value was >5.
With `Cn1cc(C(=O)Nc2cc(-c3nnc(Nc4ccc5[nH]ncc5c4Cl)s3)ccc2C(F)(F)F)cn1` [Example 48N], the IC50 in experiment [1] was > 30 µM. Further, in experiment [2], the IC50 is < 1 µM and the “Selectivity … (IC50 ROCK1 / IC50 ROCK2)” value is given as >100.
The matching figures for `CC(=O)Nc1cc(-c2nnc(Nc3ccc4[nH]ncc4c3Cl)s2)ccc1C(F)(F)F` [Example 48O]: > 30 µM, < 1 µM and >100.
On to `CC(=O)Nc1cc(-c2nnc(Nc3ccc4[nH]ncc4c3Cl)s2)ccc1-c1ncco1` [Example 48P], for which the IC50 in experiment [1] was > 30 µM. Further, in experiment [2], the IC50 is < 1 µM and the “Selectivity … (IC50 ROCK1 / IC50 ROCK2)” value is given as >100.
Consider `CC(=O)Nc1cc(C(=O)N2CCC(C(=O)O)CC2)cc(-c2nnc(Nc3ccc4[nH]ncc4c3Cl)s2)c1` [Example 48Q], for which the IC50 in experiment [1] is 1 to 15 µM; in experiment [2], < 1 µM. In experiment [2], the “Selectivity … (IC50 ROCK1 / IC50 ROCK2)” value is recorded as >5.
As for `Cn1cc(C(=O)Nc2cc(CC(=O)O)cc(-c3nnc(Nc4ccc5[nH]ncc5c4Cl)s3)c2)cn1` [Example 48R], the half-maximal inhibitory concentration (IC50) in experiment [1] is < 1 µM. Also, in experiment [2], the IC50 was < 1 µM and the “Selectivity … (IC50 ROCK1 / IC50 ROCK2)” value is on record as >5.
Turning to `CC(=O)Nc1cc(C(=O)NCC(O)CO)cc(-c2nnc(Nc3ccc4[nH]ncc4c3Cl)s2)c1` (stereo not shown) [Example 48W], the IC50 in experiment [1] and in experiment [2] was < 1 µM each time. For the same compound, the “Selectivity … (IC50 ROCK1 / IC50 ROCK2)” value in experiment [2] is on record as >5.
In the case of `Cn1cc(C(=O)Nc2cc(-c3nnc(Nc4ccc5[nH]ncc5c4Cl)s3)ccc2Br)cn1` [Example 48Y], the IC50 in experiment [1] is > 30 µM. Moreover, in experiment [2], the IC50 is < 1 µM and the “Selectivity … (IC50 ROCK1 / IC50 ROCK2)” value was >100.
Take `c1cc(-c2nnc(Nc3ccc4[nH]ncc4c3)s2)c2nccn2c1` [Example 49, 5-Imidazo[1,2-a]pyridin-8-yl-N-(1H-indazol-5-yl)-1,3,4-thiadiazol-2-amine 2,2,2-trifluoroacetic Acid Solvate]: the IC50 in experiment [1] is < 1 µM. Further, in experiment [2], the IC50 is < 1 µM and the “Selectivity … (IC50 ROCK1 / IC50 ROCK2)” value is reported as >5.
`CCc1cn2cccc(-c3nnc(Nc4ccc5[nH]nc(C)c5c4)s3)c2n1` [Example 50A]: the half-maximal inhibitory concentration (IC50) in experiment [1] lay in the range of 1 to 15 µM. In addition, in experiment [2], the IC50 was < 1 µM and the “Selectivity … (IC50 ROCK1 / IC50 ROCK2)” value is given as >5.
For the compound `FC(F)(F)c1nc2c(-c3nnc(Nc4ccc5[nH]ncc5c4Cl)s3)cc(Br)cn2n1` [Example 50B], the half-maximal inhibitory concentration (IC50) in experiment [1] was 1 to 15 µM; in experiment [2], < 1 µM. In experiment [2], the “Selectivity … (IC50 ROCK1 / IC50 ROCK2)” value was >100.
Regarding `Clc1c(Nc2nnc(-c3cccn4cc(C5CCCO5)nc34)s2)ccc2[nH]ncc12` (stereo not shown) [Example 50C], the IC50 in experiment [1] and in experiment [2] was < 1 µM each time. The “Selectivity … (IC50 ROCK1 / IC50 ROCK2)” value in experiment [2] was >5.
Regarding `O=C(O)c1ccc(-c2cn3cccc(-c4nnc(Nc5ccc6[nH]ncc6c5Cl)s4)c3n2)cc1` [Example 50E], in experiment [1], the concentration for half-maximal inhibition (IC50) was > 30 µM. Besides, in experiment [2], the IC50 was < 1 µM and the “Selectivity … (IC50 ROCK1 / IC50 ROCK2)” value is given as >100.
Turning to `CC(C)(O)c1ccc(-c2cn3cccc(-c4nnc(Nc5ccc6[nH]ncc6c5Cl)s4)c3n2)cc1` [Example 50F], in experiment [1], the half-inhibitory concentration (IC50) is < 1 µM. For the same compound, in experiment [2], the half-maximal inhibitory concentration (IC50) is < 1 µM and the “Selectivity … (IC50 ROCK1 / IC50 ROCK2)” value is >5.
`Clc1c(Nc2nnc(-c3cccn4cc(C5CCCN5)nc34)s2)ccc2[nH]ncc12` (stereo not shown) [Example 50G]: the concentration for half-maximal inhibition (IC50) in experiment [1] was < 1 µM. In addition, in experiment [2], the half-inhibitory concentration (IC50) is < 1 µM and the “Selectivity … (IC50 ROCK1 / IC50 ROCK2)” value is on record as <5.
For the compound `Clc1c(Nc2nnc(-c3cccn4cc(C5CCNCC5)nc34)s2)ccc2[nH]ncc12` [Example 50H], the half-inhibitory concentration (IC50) was 1 to 15 µM in experiment [1] and < 1 µM in experiment [2]. Besides, the “Selectivity … (IC50 ROCK1 / IC50 ROCK2)” value in experiment [2] is >5.
The matching figures for `CC(=O)c1ccc(-c2cn3cccc(-c4nnc(Nc5ccc6[nH]ncc6c5Cl)s4)c3n2)cc1` [Example 51, 1-(4-(8-(5-((4-Chloro-1H-indazol-5-yl)amino)-1,3,4-thiadiazol-2-yl)imidazo[1,2-a]pyridin-2-yl)phenyl)ethan-1-one]: > 30 µM, < 1 µM and >100.
Consider `CC(C)c1cn2cccc(-c3nnc(Nc4ccc5[nH]ncc5c4Cl)s3)c2n1` [Example 52B], for which the half-inhibitory concentration (IC50) in experiment [1] and in experiment [2] was < 1 µM throughout. The “Selectivity … (IC50 ROCK1 / IC50 ROCK2)” value in experiment [2] is listed as <5.
As for `FC(F)(F)c1cn2cccc(-c3nnc(Nc4ccc5[nH]ncc5c4Cl)s3)c2n1` [Example 52C], the IC50 in experiment [1] was > 30 µM. In addition, in experiment [2], the half-maximal inhibitory concentration (IC50) was < 1 µM and the “Selectivity … (IC50 ROCK1 / IC50 ROCK2)” value was >100.
As to `CCc1cn2cccc(-c3nnc(Nc4ccc5[nH]ncc5c4Cl)s3)c2n1` [Example 52D], the IC50 in experiment [1] is < 1 µM. For the same compound, in experiment [2], the IC50 is < 1 µM and the “Selectivity … (IC50 ROCK1 / IC50 ROCK2)” value is >5.
With `Clc1c(Nc2nnc(-c3cccn4cc(-c5ccc(Br)cc5)nc34)s2)ccc2[nH]ncc12` [Example 52E], in experiment [1], the IC50 is > 30 µM. For the same compound, in experiment [2], the 50% inhibitory concentration (IC50) was < 1 µM and the “Selectivity … (IC50 ROCK1 / IC50 ROCK2)” value is listed as >100.
The matching figures for `Brc1cc(-c2nnc(Nc3ccc4[nH]ncc4c3)s2)c2nccn2c1` [Example 52F]: > 30 µM, < 1 µM and >100.
The matching figures for `Brc1ccc(-c2cn3cccc(-c4nnc(Nc5ccc6[nH]ncc6c5)s4)c3n2)cc1` [Example 52G]: > 30 µM, < 1 µM and >100.
On to `CN(c1nnc(-c2cccc(NC(=O)Cc3ccc(C#N)cc3)c2)s1)c1ccc2[nH]ncc2c1Cl` [Example 54B], for which the IC50 in experiment [1] is > 30 µM. In experiment [2], the 50% inhibitory concentration (IC50) lay within 15 to 30 µM and the “Selectivity … (IC50 ROCK1 / IC50 ROCK2)” value was <5.
`Cc1cnn(CC(=O)Nc2cccc(-c3nnc(N(C)c4ccc5[nH]ncc5c4Cl)s3)c2)c1` [Example 54C]: the IC50 in experiment [1] lay within 1 to 15 µM. Moreover, in experiment [2], the IC50 is 1 to 15 µM and the “Selectivity … (IC50 ROCK1 / IC50 ROCK2)” value is <5.
In the case of `CC(=O)Nc1cccc(-c2nnc(N(C)c3ccc4[nH]ncc4c3)s2)c1` [Example 54D], the IC50 in experiment [1] and in experiment [2] was 1 to 15 µM each time.
With `COc1cccc(-c2nnc(N(CCO)c3ccc4[nH]ncc4c3)s2)c1` [Example 54E], the concentration for half-maximal inhibition (IC50) in experiment [1] and in experiment [2] was 15 to 30 µM throughout.
As to `Clc1c(Nc2nnc(-c3cccc4[nH]c(-c5cccs5)nc34)s2)ccc2[nH]ncc12` [Example 56B], in experiment [1], the IC50 is > 30 µM. Moreover, in experiment [2], the 50% inhibitory concentration (IC50) was < 1 µM and the “Selectivity … (IC50 ROCK1 / IC50 ROCK2)” value is listed as >100.
Take `CN1C(=O)Cc2cccc(-c3nnc(Nc4ccc5[nH]ncc5c4Cl)s3)c21` [Example 56C]: the concentration for half-maximal inhibition (IC50) in experiment [1] and in experiment [2] was 1 to 15 µM each time. Moreover, the “Selectivity … (IC50 ROCK1 / IC50 ROCK2)” value in experiment [2] is listed as <5.
With `O=C1Cc2c(cccc2-c2nnc(Nc3ccc4[nH]ncc4c3Cl)s2)N1` [Example 56D], in experiment [1], the IC50 is > 30 µM. In experiment [2], the IC50 is < 1 µM and the “Selectivity … (IC50 ROCK1 / IC50 ROCK2)” value is listed as >100.
For the compound `O=C1Cc2cccc(-c3nnc(Nc4ccc5[nH]ncc5c4Cl)s3)c2N1` [Example 56E], the concentration for half-maximal inhibition (IC50) in experiment [1] is > 30 µM. In experiment [2], the IC50 is < 1 µM and the “Selectivity … (IC50 ROCK1 / IC50 ROCK2)” value is on record as >50.

For the origin of these results see patent publication US10112935B2, “Indazolyl thiadiazolamines and related compounds for inhibition of Rho-associated protein kinase and the treatment of disease” (Lycera Corporation, priority 2015, dated 2018).
